Reference: patent publication US20060241101A1, “Novel benzimidazole derivatives and pharmaceutical compositions comprising these compounds” (priority 2003, published 2006)
Structures can show the parent of a compound that is named as a salt.

| melting point [°C] | SMILES |
| --- | --- |
| 159 to 162 | COCCN1CCN(c2cccc(-n3cnc4cc(C(=O)OCCO)ccc43)c2)CC1 (as salt: HCl) [Compound 1f, 2-Hydroxyethyl 1-(3-(4-(methoxyethyl)-1-piperazinyl)-phenyl)-benzimidazole-5-carboxylate] |
| 148 to 152 | CCCCOC(=O)c1ccc2c(c1)ncn2-c1cccc(N2CCN(CCOC)CC2)c1 (as salt: HCl) [Compound 1g, n-Butyl 1-(3-(4-(methoxyethyl)-1-piperazinyl)-phenyl)-benzimidazole-5-carboxylate] |

More lines, now with the values behind:

| SMILES | melting point [°C] |
| --- | --- |
| CCCCOC(=O)c1ccc2c(c1)ncn2-c1cccc(N2CCN(CCOCC)CC2)c1 (as salt: HCl) [Compound 1c, n-Butyl 1-(3-(4-(ethoxyethyl)-1-piperazinyl)-phenyl)-benzimidazole-5-carboxylate] | 92 to 95 |
| CCOCCN1CCN(c2cccc(-n3cnc4cc(C(=O)OCC(C)C)ccc43)c2)CC1 (as salt: HCl) [Compound 1d, iso-Butyl 1-(3-(4-(ethoxyethyl)-1-piperazinyl)-phenyl)-benzimidazole-5-carboxylate] | 154 to 160 |
| COCCOC(=O)c1ccc2c(c1)ncn2-c1cccc(N2CCN(CCOC)CC2)c1 (as salt: HCl) [Compound 1e, 2-Methoxyethyl 1-(3-(4-(methoxyethyl)-1-piperazinyl)-phenyl)-benzimidazole-5-carboxylate] | 173 to 178 |
